Structures can show the parent of a compound that is named as a salt.
Assays:
[1] = Cyclopropene release measurement (headspace gas chromatography); type: physicochemical; conditions: for effect on % release of 1-MCP (in words): compared to the 13% with no agent
Method: Cyclopropene Headspace Measurement Method:
A composition containing water and cyclopropene was sealed in a bottle equipped with a septum in a manner that leaves a portion of the volume of the bottle filled with gas; a portion of the headspace was analyzed for cyclopropene at 1 hour after injection. The analysis method was gas chromatography using the following parameters:
Cyclopropene Release Measurement
The release of cyclopropene from a mixture of water and cyclopropene was measured as follows.
From the measure concentration of cyclopropene in the headspace and the amount of cyclopropene added to the bottle, the fraction of the total amount of cyclopropene in the bottle that resides in the headspace can be calculated and reported as a percentage based on the amount of cyclopropene added to the bottle.

[2] = system: Tomatoes (Rutgers 39 Variety); test: Tomato epinasty test; type: in vivo; conditions: for % Control of Epinasty: foliar spray, 1-MCP 140 ppb, ethylene 14 ppm 12-14 hours
Method: Tomato epinasty tests were performed as follows:
Tomatoes (Rutgers 39 Variety Harris Seeds No 885 Lot 37729-A3) were grown in 2½″ square pots filled with a commercial potting mix. Two seeds were place in each pot. Plants that had expanded first true leaves and were between 3 and 5 inches high were used for the tomato epinasty test.
To conduct the assay, the plants were sprayed to run off with the test 1-MCP foliar spray and allowed to dry for 4 hours in sunlight These operations were performed in a ventilated area away from the plants growing in the greenhouse so there would not be any unintended treatment to growing plants destined for later experiments.
The 1-MCP treated plants and both treated and untreated controls were placed into an SLX controlled-atmosphere shipping box and sealed. To the box, ethylene was injected through a septum, which gave a concentration of 14 ppm. The plants were held sealed for 12-14 hours in the dark with ethylene in the atmosphere. At the end of ethylene treatment, the box was opened and scored for epinasty. Scoring for epinasty was accomplished by using the following scoring system for each pot. • 1. 0% no epinasty (100% control) • 2. 20% A couple leaves show some drooping (80% control) • 3. 50% Plants show 50% of full response. Not all leaves need to show effect. (50% control) • 4. 80% Almost all leaves drooping and some show underside of leaf exposed on top. (20% control) • 5. 100% Leaves completely drooping and the underside of the leaf exposed from above. (0% control)
The score of each pot is recorded. The average of 6 or 8 pots is averaged to get a score. The percentage improvement is calculated by interpolating the percentage improvement from the control water (i.e., no additives) 1-MCP treatment.
Tomato epinasty tests were conducted using a formulation that included water; a 1-MCP α-CD complex that contained 0.14% 1-MCP by weight, based on the weight of the 1-MCP α-CD complex; and sodium salt of EDTA. The amount of 1-MCP α-CD complex was chosen so that the formulation had 140 ppb of 1-MCP. Also included in the formulation were an anionic surfactant (0.1% by weight based on the weight of the formulation), isopropanol (1% by weight based on the weight of the formulation), and a spray oil (1% by weight based on the weight of the formulation).

[3] = deionized water #1, 5 ppm copper ion, metal-complexing agent 1 mM
[4] = deionized water #1, 5 ppm copper ion, metal-complexing agent 5 mM
[5] = deionized water #1, 5 ppm copper ion, metal-complexing agent 10 mM

CC1=CC1 [1-MCP, 1-methylcyclopropene, reference compound]
% Release of 1-MCP ([1]; 1-MCP α-CD complex in deionized #1 water, no metal-complexing agent): 100%
% Release of 1-MCP ([1]; 1-MCP α-CD complex in deionized #2 water, no metal-complexing agent): 60%
% Release of 1-MCP ([1]; 1-MCP α-CD complex in filtered (MilliQ) water, no metal-complexing agent): 100%
% Release of 1-MCP ([1]; 1-MCP α-CD complex in tap #1 water, no metal-complexing agent, headspace at 1 hour): 60%
% Release of 1-MCP ([1]; 1-MCP α-CD complex in tap #2 water, no metal-complexing agent, headspace at 1 hour): 13%
activity of 1-MCP (in words) ([1]; copper ions without sodium salt of EDTA): reduction in activity
activity of 1-MCP (in words) ([1]; copper ions, sodium salt of EDTA added 2 hours after the 1-MCP α-CD complex): fails to maintain the activity
activity of 1-MCP (in words) ([1]; copper ions, sodium salt of EDTA added to the water before the 1-MCP α-CD complex): maintains the full activity
% Release of 1-MCP ([1]; deionized water #1, copper ions 0 ppm, sodium salt of EDTA 0 mM): 100%
% Release of 1-MCP ([1]; deionized water #1, copper ions 1 ppm, sodium salt of EDTA 0 mM): 54%
% Release of 1-MCP ([1]; deionized water #1, copper ions 5 ppm, sodium salt of EDTA 0 mM): 36%
% Release of 1-MCP ([1]; deionized water #1, copper ions 5 ppm, sodium salt of EDTA 11 mM added 2 hours after 1-MCP α-CD complex, headspace 1 hour later): 37%
% Release of 1-MCP ([1]; deionized water #1, copper ions 5 ppm, sodium salt of EDTA 11 mM added before the 1-MCP α-CD complex): 100%
% Release of 1-MCP ([1]; deionized water #1, copper ions 10 ppm (cupric sulfate), sodium salt of EDTA 0 mM): 10%
control of epinasty (in words) ([2]; deionized water with 1-MCP): does control epinasty
% Control of Epinasty ([2]; de-ionized water, EDTA 0 mM): 100%
% Control of Epinasty ([2]; well water, EDTA 0 mM): 0%
% Control of Epinasty ([2]; well water, EDTA 0.003 mM): 80%
control of epinasty (in words) ([2]; well water with 1-MCP): does not control epinasty
control of epinasty (in words) ([2]; well water with 1-MCP and sodium salt of EDTA): does control epinasty

O=C(O)CC(O)(CC(=O)O)C(=O)O [Citric Acid, citric acid]
% Release of 1-MCP ([1]; tap #2 water, citric acid 1 milliMolar added first): 63%
% Release of 1-MCP ([1]; tap #2 water, citric acid 10 milliMolar added first): 100%
% Release of 1-MCP ([1]; tap #2 water, citric acid 100 milliMolar added first): 92%
effect on % release of 1-MCP (in words) ([1]; tap #2 water): improves the % release dramatically

O=C(O)CN(CCN(CC(=O)O)CC(=O)O)CC(=O)O [Sodium Salt of EDTA, ethylenediaminetetraacetic acid]
effect on % release of 1-MCP (in words) ([1]; tap #2 water): improves the % release dramatically
% Release of 1-MCP ([1]; tap #2 water, sodium salt of EDTA 0.00001 milliMolar): 87%
% Release of 1-MCP ([1]; tap #2 water, sodium salt of EDTA 0.0001 milliMolar): 100%
% Release of 1-MCP ([1]; tap #2 water, sodium salt of EDTA 0.001 milliMolar): 100%
% Release of 1-MCP ([1]; tap #2 water, sodium salt of EDTA 0.01 milliMolar): 100%
% Release of 1-MCP ([1]; tap #2 water, sodium salt of EDTA 0.1 milliMolar): 100%
% Release of 1-MCP ([1]; tap #2 water, sodium salt of EDTA 1 milliMolar): 100%
% Release of 1-MCP ([1]; tap #2 water, sodium salt of EDTA 10 milliMolar): 100%

O=C(O)C(O)C(O)C(=O)O (centres unmarked) [Tartaric acid, tartaric acid]
% Release of 1-MCP [1, 3]: 99%
% Release of 1-MCP [1, 4]: 85%
% Release of 1-MCP [1, 5]: 92%

O=C(O)CN(CC(=O)O)CC(=O)O [nitrilotriacetic acid]
% Release of 1-MCP [1, 3]: 97%
% Release of 1-MCP [1, 4]: 100%
% Release of 1-MCP [1, 5]: 95%

O=C([O-])[O-].[Na+].[Na+] [sodium carbonate]
% Release of 1-MCP [1, 3]: 61%
% Release of 1-MCP [1, 4]: 68%
% Release of 1-MCP [1, 5]: 71%

O=P([O-])([O-])OP(=O)([O-])[O-].[Na+].[Na+].[Na+].[Na+] [tetrasodium pyrophosphate]
% Release of 1-MCP [1, 3]: 42%
% Release of 1-MCP [1, 4]: 39%
% Release of 1-MCP [1, 5]: 54%

From patent US8541344B2, “Compositions with cyclopropenes and metal-complexing agents” (Rohm and Haas Company, priority 2004, dated 2013)
